Test results reported in patent publication US11452704B2, “Prevention and treatment of muscle wasting with ketone supplementation” (UNIVERSITY OF SOUTH FLORIDA, priority 2017, dated 2022).

Legend:
[1] = tested on: anorexia induced by catabolic/atrophy/cachexic stimulus (LPS); assay: LPS-induced anorexia, food intake (Example 5); type: in vivo; details: 10 mg/kg LPS i.p.; one-time dose 4 mL/kg intragastric gavage vs water; FIG. 4A-B
Protocol: FIG. 4A depicts the difference in anorexia symptoms following Lipopolysaccharide administration with treatment with control or ketone supplementation.
FIG. 4B depicts the difference in caloric intake following Lipopolysaccharide administration with treatment with control or ketone supplementation.
FIG. 4A-B depicts weight matched animals who were administered 10 mg/kg LPS intraperitoneally. After intraperitoneal LPS injection, 4 mL/kg of water (n=4) or R/S 1,3 Butanediol Acetoacetate Diester (Ketone Diester; n=5) were intragastrically gavaged into animals. Food Intake was tracted to determine if a one-time does of Ketone Diester was able to reduce anorexia experiences post catabolic/atrophy/cachexic stimulus (10 mg/kg LPS intraperitoneally).

[2] = tested on: cancer induced tissue wasting (muscle and fat), VM-M3 model of metastatic cancer; assay: VM-M3 model of metastatic cancer: muscle mass as ratio of total calories consumed (Example 2); type: in vivo, VM/Dk animals; details: with standard diet, vs standard diet or ketogenic diet; 21 days post-cancer implantation; FIG. 1
Text: FIG. 1 depicts ratios of muscle mass to amount of calories consumed within a cancer cachexia VM-M3 modeling system, specifically with subjects having been fed standard diet, ketogenic diet, and ketone diester.
Taking a model system of cancer induced tissue wasting (muscle and fat), R,S 1,3 butanediol diacetoacetate+standard diet, ketogenic diet, and standard diet were applied. VM/Dk animals were matched for sex, age, and bodyweight to ensure controlled groups. Animals were implanted with VM-M3 cell in the left flank to create the VM-M3 model of metastatic cancer. Once implanted, primary tumor forms at site of implantation, and then cells metastasize to all major organ systems that results in tissue wasting. Animals were harvested at 21 days post-cancer implantation to evaluate tissue wasting. […] This confirms that R,S 1,3 butanediol diacetoacetate is an anti-catabolic/anti-tissue wasting compound.

[3] = tested on: tissue catabolism/atrophy/cachexia that is induced by LPS; assay: LPS-induced catabolism, pair fed animals, multiple treatments (Example 6); type: in vivo
Protocol: FIG. 5A depicts the difference in bodyweight following Lipopolysaccharide administration with multiple treatments with control or ketone supplementation with calories controlled across groups.
FIG. 5B depicts the difference in percent bodyweight following Lipopolysaccharide administration with multiple treatments with control or ketone supplementation with calories controlled across groups.
FIG. 5A-B depicts weight matched animals who were administered 10 mg/kg LPS intraperitoneally. After intraperitoneal LPS injection, 4 mL/kg of water (n=4) or R/S 1,3 Butanediol Acetoacetate Diester (Ketone Diester; n=4) were intragastrically gavaged into animals. Animals were pair fed to ensure calories were equivalent between groups to remove influence of caloric intake on tissue catabolism/atrophy/cachexia. […] This effect was retained for a minimum of 2 days following catabolic/atrophy/cachexia stimulus (10 mg/kg LPS intraperitoneal). The ability of Ketone Diester to attenuate catabolism was independent of caloric intake/anorexia induced by LPS.

cancer cachexia (VM-M3) = assay: Cancer cachexia (VM-M3), skeletal muscle weight as ratio to baseline bodyweight (Example 7); type: in vivo; details: ketone diester in standard diet food at 30% by weight; 21 days post cancer injection; vs cancer on standard diet; FIG. 6A-B
Text: FIG. 6A depicts the difference in skeletal muscle weight following cancer cachexia administration (VM-M3) with control or ketone supplementation.
FIG. 6B depicts the difference in skeletal muscle weight following cancer cachexia administration (VM-M3) with control or ketone supplementation.
FIG. 6A-B depict weight matched animals who were split into 3 groups 1) Animals without cancer injected with vehicle on standard diet (Sham; n=11), 2) animals with cancer on standard diet (n=11), and 3) animals with cancer with ketone diester incorporated into the standard diet food at 30% by weight (n=11). Animals bodyweight was measured at baseline. Cancer groups were assessed in a validated model of cancer cachexia. At 21 days post vehicle or cancer injection, tissue were harvest and weighed. Skeletal Muscle weight was set as a ratio to baseline bodyweight to determine the differences in skeletal muscle tissue as compared to set pre-cancer timepoint.

[4] = tested on: tissue catabolism/atrophy/cachexia that is induced by LPS; assay: LPS-induced catabolism, single gavage, bodyweight tracked for 2 weeks (Example 4); type: in vivo, VM/Dk mice
Text: FIG. 3A depicts acute percent bodyweight changes that accompany Lipopolysaccharide after treatment with control or ketone supplementation in VM/Dk mice.
FIG. 3B depicts acute bodyweight changes that accompany Lipopolysaccharide after treatment with control or ketone supplementation in VM/Dk mice.
FIG. 3C depicts chronic percent bodyweight changes that accompany Lipopolysaccharide after treatment with control or ketone supplementation in VM/Dk mice.
FIG. 3D depicts the difference in bodyweight with control treatment at baseline versus each day following Lipopolysaccharide treatment.
FIG. 3E depicts the difference in bodyweight with ketone supplement treatment at baseline versus each day following Lipopolysaccharide treatment.
FIGS. 3A-E depict results from Weight matched animals who were administered 10 mg/kg LPS intraperitoneally. After intraperitoneal LPS injection, 4 mL/kg of water (n=4) or R/S 1,3 Butanediol Acetoacetate Diester (Ketone Diester; n=5) were intragastrically gavaged into animals one time. Bodyweight and food intake were tracked for 2 weeks post LPS administration. […] FIG. 3D-E depicts animals administered water gavage post LPS were not able to recovery to baseline bodyweight levels until 11 days post LPS administration.

CC(=O)CC(=O)OCCC(C)OC(=O)CC(C)=O (stereo not shown) [Ketone Diester, R/S 1,3 Butanediol Acetoacetate Diester]
anorexia (food intake, caloric intake) following LPS [1]: significantly reduced the anorexia | percentage of muscle mass as a ratio of total calories consumed (Quad/Carcass/Absolute calories consumed) [2]: substantially higher percentage of muscle mass compared to the amount of calories consumed | tissue catabolism/atrophy/cachexia (bodyweight) induced by LPS, calories controlled ([3]; 10 mg/kg LPS i.p., 4 mL/kg gavage, multiple administrations, FIG. 5A-B): significantly attenuated tissue catabolism/atrophy/cachexia | duration for which the anti-catabolic effect was retained ([3]; following 10 mg/kg LPS intraperitoneal): ≥ 2 days | Gastrocnemius catabolism/atrophy/cachexia (muscle weight / baseline bodyweight) (cancer cachexia (VM-M3)): significantly attenuated | Quadricep catabolism/atrophy/cachexia (muscle weight / baseline bodyweight) (cancer cachexia (VM-M3)): significantly attenuated | bodyweight versus baseline on each day following LPS ([4]; 10 mg/kg LPS i.p., 4 mL/kg gavage, FIG. 3E (water control recovered only at 11 days)): did not significantly reduced in bodyweight | attenuation of tissue catabolism/atrophy/cachexia induced by LPS ([4]; 10 mg/kg LPS i.p., 4 mL/kg intragastric gavage one time, within 1st 24 hour post LPS, FIG. 3A): 46% | attenuation of percentage of tissue catabolism/atrophy/cachexia induced by LPS ([4]; 10 mg/kg LPS i.p., 4 mL/kg intragastric gavage one time, within 1st 24 hours post LPS, FIG. 3B): 48% | chronic tissue catabolism (percent bodyweight change) compared to control ([4]; multi-weeks post-LPS administration, FIG. 3C): significantly attenuated tissue catabolism compared to control
